# Test results reported in the NIST ThermoML archive (doi:10.1021/je700321s).
# Numbers after ± are expanded uncertainties.
# Test: xn = mol fraction of the nth substance listed
# Conditions: Liquid, Vibrating tube method
smiles,measurement,setting,value
CC(C)O [propan-2-ol] + O=C=O,mass density,"313.1 K, 9024 kPa, x2 = 0.4248",808.1 ± 0.8 kg/m3
same,mass density,"313.1 K, 9602 kPa, x2 = 0.4248",809.3 ± 0.8 kg/m3
same,mass density,"313.1 K, 9636 kPa, x2 = 0.2003",794.6 ± 0.8 kg/m3
same,mass density,"313.1 K, 10055 kPa, x2 = 0.4248",810.1 ± 0.8 kg/m3
same,mass density,"313.12 K, 6801 kPa, x2 = 0.6086",802.8 ± 0.8 kg/m3
same,mass density,"313.12 K, 7000 kPa, x2 = 0.6086",803.5 ± 0.8 kg/m3
same,mass density,"313.12 K, 7203 kPa, x2 = 0.6086",804.4 ± 0.8 kg/m3
same,mass density,"313.12 K, 7402 kPa, x2 = 0.6086",805.2 ± 0.8 kg/m3
same,mass density,"313.12 K, 7602 kPa, x2 = 0.6086",806 ± 0.8 kg/m3
same,mass density,"313.12 K, 7804 kPa, x2 = 0.6086",806.8 ± 0.8 kg/m3
same,mass density,"313.12 K, 8010 kPa, x2 = 0.6086",807.7 ± 0.8 kg/m3
same,mass density,"313.12 K, 8124 kPa, x2 = 0.9715",526.2 ± 2.6 kg/m3
same,mass density,"313.12 K, 8197 kPa, x2 = 0.6086",808.3 ± 0.8 kg/m3
same,mass density,"313.12 K, 8400 kPa, x2 = 0.6086",809.1 ± 0.8 kg/m3
same,mass density,"313.12 K, 8526 kPa, x2 = 0.9715",627.3 ± 2.1 kg/m3
same,mass density,"313.12 K, 8602 kPa, x2 = 0.6086",809.8 ± 0.8 kg/m3
same,mass density,"313.12 K, 8812 kPa, x2 = 0.6086",810.5 ± 0.8 kg/m3
same,mass density,"313.12 K, 9000 kPa, x2 = 0.6086",811.3 ± 0.8 kg/m3
same,mass density,"313.12 K, 9002 kPa, x2 = 0.9715",662.5 ± 1.7 kg/m3
same,mass density,"313.12 K, 9213 kPa, x2 = 0.6086",812 ± 0.8 kg/m3
same,mass density,"313.12 K, 9392 kPa, x2 = 0.6086",812.6 ± 0.8 kg/m3
same,mass density,"313.12 K, 9522 kPa, x2 = 0.9715",689 ± 1.4 kg/m3
same,mass density,"313.12 K, 9600 kPa, x2 = 0.6086",813.3 ± 0.8 kg/m3
same,mass density,"313.12 K, 9802 kPa, x2 = 0.6086",814 ± 0.8 kg/m3
same,mass density,"313.12 K, 10001 kPa, x2 = 0.6086",814.6 ± 0.8 kg/m3
same,mass density,"313.12 K, 10021 kPa, x2 = 0.9715",708.1 ± 1.2 kg/m3
same,mass density,"313.12 K, 10520 kPa, x2 = 0.9715",722.7 ± 1 kg/m3
same,mass density,"313.12 K, 10993 kPa, x2 = 0.9715",734.9 ± 1 kg/m3
same,mass density,"313.12 K, 11514 kPa, x2 = 0.9715",746.8 ± 0.9 kg/m3
same,mass density,"313.12 K, 12038 kPa, x2 = 0.9715",757.3 ± 0.9 kg/m3
same,mass density,"313.12 K, 12512 kPa, x2 = 0.9715",765.8 ± 0.9 kg/m3
same,mass density,"313.12 K, 13003 kPa, x2 = 0.9715",773.6 ± 0.9 kg/m3
same,mass density,"313.12 K, 13500 kPa, x2 = 0.9715",781.1 ± 0.9 kg/m3
same,mass density,"313.12 K, 13998 kPa, x2 = 0.9715",788.2 ± 0.9 kg/m3
same,mass density,"313.12 K, 14495 kPa, x2 = 0.9715",794.8 ± 0.9 kg/m3
same,mass density,"313.12 K, 15008 kPa, x2 = 0.9715",801.1 ± 0.9 kg/m3
same,mass density,"323.03 K, 6842 kPa, x2 = 0.4248",786.9 ± 0.8 kg/m3
same,mass density,"323.03 K, 7010 kPa, x2 = 0.4248",787.3 ± 0.8 kg/m3
same,mass density,"323.03 K, 7302 kPa, x2 = 0.4248",788.1 ± 0.8 kg/m3
same,mass density,"323.03 K, 7530 kPa, x2 = 0.4248",788.6 ± 0.8 kg/m3
same,mass density,"323.03 K, 8004 kPa, x2 = 0.4248",789.7 ± 0.8 kg/m3
same,mass density,"323.03 K, 8302 kPa, x2 = 0.4248",790.4 ± 0.8 kg/m3
same,mass density,"323.03 K, 8401 kPa, x2 = 0.4248",790.6 ± 0.8 kg/m3
same,mass density,"323.03 K, 8500 kPa, x2 = 0.4248",790.8 ± 0.8 kg/m3
same,mass density,"323.03 K, 8603 kPa, x2 = 0.4248",791.2 ± 0.8 kg/m3
same,mass density,"323.03 K, 8710 kPa, x2 = 0.4248",791.4 ± 0.8 kg/m3
same,mass density,"323.03 K, 8821 kPa, x2 = 0.4248",791.7 ± 0.8 kg/m3
same,mass density,"323.03 K, 9000 kPa, x2 = 0.4248",792.1 ± 0.8 kg/m3
same,mass density,"323.03 K, 9209 kPa, x2 = 0.4248",792.5 ± 0.8 kg/m3
same,mass density,"323.03 K, 9309 kPa, x2 = 0.4248",792.8 ± 0.8 kg/m3
same,mass density,"323.03 K, 9401 kPa, x2 = 0.4248",793.1 ± 0.8 kg/m3
same,mass density,"323.03 K, 9502 kPa, x2 = 0.4248",793.3 ± 0.8 kg/m3
same,mass density,"323.03 K, 9601 kPa, x2 = 0.4248",793.4 ± 0.8 kg/m3
same,mass density,"323.03 K, 9728 kPa, x2 = 0.4248",793.7 ± 0.8 kg/m3
same,mass density,"323.05 K, 2995 kPa, x2 = 0.139",771.3 ± 0.8 kg/m3
same,mass density,"323.05 K, 3503 kPa, x2 = 0.139",771.9 ± 0.8 kg/m3
same,mass density,"323.05 K, 4003 kPa, x2 = 0.139",772.6 ± 0.8 kg/m3
same,mass density,"323.05 K, 4494 kPa, x2 = 0.139",773.2 ± 0.8 kg/m3
same,mass density,"323.05 K, 5074 kPa, x2 = 0.139",773.9 ± 0.8 kg/m3
same,mass density,"323.05 K, 5511 kPa, x2 = 0.139",774.5 ± 0.8 kg/m3
same,mass density,"323.05 K, 6033 kPa, x2 = 0.139",775.2 ± 0.8 kg/m3
same,mass density,"323.05 K, 7021 kPa, x2 = 0.139",776.4 ± 0.8 kg/m3
same,mass density,"323.05 K, 7506 kPa, x2 = 0.6086",779.7 ± 2 kg/m3
same,mass density,"323.05 K, 7514 kPa, x2 = 0.139",777.1 ± 0.8 kg/m3
same,mass density,"323.05 K, 7703 kPa, x2 = 0.6086",780.7 ± 1.1 kg/m3
same,mass density,"323.05 K, 7803 kPa, x2 = 0.6086",781.1 ± 1.5 kg/m3
